Assays:
target gene SOD1 [1] = experiment: Test Example 10: inhibitory activity on SOD1 in mouse adipose and heart tissues by different routes of administration; format: in vivo, C57BL/6j mice; conditions: D14; for inhibitory activity by different routes of administration: subcutaneous vs tail vein injection, same dose 5 mg/kg; for Subcutaneous % Mean value of inhibition rate: subcutaneous administration 5 mg/kg; for Intravenous % Mean value of inhibition rate: tail vein injection 5 mg/kg
Method: (§1) RNA extraction: the above tissue samples were taken out from the RNAlater, and smashed for 60 s in Tissuelyser type II full-automatic tissue homogenizer, and total RNAs of various tissue samples were extracted using the full-automatic nucleic acid extraction instrument and the nucleic acid extraction kit from Zhejiang Hanwei Science and Technology Co. Ltd. according to methods described in instructions.
(§2) Reverse transcription reaction: 1 μg of the extracted total RNAs of the tissue samples were taken, and configured into 20 μL of reverse transcription system according to a method described in kit instructions by using a reverse transcription kit (Reverse Transcription System, A3500) from Promega Corporation and selecting Oligo (dT)15 reverse transcription primers, and the reverse transcription reaction was completed. After the reaction was ended, 80 μL of RNase-Free water was added into the reverse transcription system to provide cDNA solution for Real-time PCR detection.
(§3) Real-time PCR detection: 20 μL of Real-time PCR reaction system per PCR detection well was configured according to a method described in kit instructions using SYBR™ Select Master Mix (Catalog number: 4472908) reagent from ABI company. Each detection system contained 5 μL of cDNA template obtained from the above reverse transcription reaction, 10 μL of SYBR™ Select Master Mix, 0.5 μL of 10 μM upstream primers, 0.5 μL of 10 μM downstream primers, and 4 μL of RNase-Free H2O. The configured reaction system was subjected to Real-time PCR amplification on ABI StepOnePlus PCR instrument by a three-step method, wherein an amplification procedure was pre-denaturation at 95° C. for 10 min, then denaturation at 95° C. for 30 s, annealing at 60° C. for 30 s, and extension at 72° C. for 30 s; and processes of denaturation, annealing, and extension were repeated for 40 cycles. Gene expression differences were calculated by the ΔΔCt method after completion of the procedure.
(§4) In the real-time fluorescence quantitative PCR method, relative quantitative calculation of remaining expression level and inhibition rate of gene mRNA of interest in various test groups was performed by the ΔΔCt method, and the calculation method is as follows:
The present test example evaluated, by an evaluation method for inhibitory activity on a target gene in mice, the inhibitory activity of siRNA sequence RZ899090 with the sense strand with the NM073 conjugation at Position 4 on the target gene SOD1 of interest in mice.
6-8 Week-old C57BL/6j mice were randomly grouped by body weight, 5 per group, 4 groups in total. Mice in one of the groups were dosed with the above siRNA conjugate by tail vein injection, with an administration dose of 5 mg/kg, and an administration volume of 150 μL. One group was dosed with the above siRNA conjugate by subcutaneous administration, with an administration dose of 5 mg/kg, and an administration volume of 5 ml/kg. The other two groups were PBS control groups, and were respectively administered with the same volume of siRNA conjugate-free PBS solution by tail vein injection and subcutaneous administration. The day of administration was recorded as D0, and the mice were sacrificed on D14 after administration. Paragonadal fat and heart tissues were respectively taken and stored in the RNAlater. RNA extraction, reverse transcription, and real-time fluorescence quantitative detection were performed on various tissues according to the above method, and gene expression differences were calculated by the above ΔΔCt method.

target gene SOD1 [2] = experiment: Test Example 11: inhibitory activity at different administration doses on SOD1 in mouse adipose and heart tissues; format: in vivo, C57BL/6j mice; conditions: D14; for 0.5 mg/kg % Mean value of inhibition rate: tail vein injection 0.5 mg/kg; for 2 mg/kg % Mean value of inhibition rate: tail vein injection 2 mg/kg; for 5 mg/kg % Mean value of inhibition rate: tail vein injection 5 mg/kg; for dose dependency of inhibitory activity: 0.5, 2, 5 mg/kg tail vein
Method: as §1, §2, §3, §4
The present test example evaluated, by an evaluation method for inhibitory activity on a target gene in mice, the inhibitory activity of siRNA sequence RZ899090 with the sense strand with the NM073 conjugation at Position 4 at different administration doses on the target gene SOD1 of interest in mice.
6-8 Week-old C57BL/6j mice were randomly grouped by body weight, 5 per group, 4 groups in total. Mice were administered with the above siRNA conjugate by tail vein injection, wherein mice in one group were administered with the above siRNA conjugate at an administration dose of 5 mg/kg, mice in one group were administered with the above siRNA conjugate at an administration dose of 2 mg/kg, and one group was administered with the above siRNA conjugate at an administration dose of 0.5 mg/kg, all administration volumes being 150 μL. The remaining group acted as PBS control group and was administered with the same volume of siRNA conjugate-free PBS solution. The day of administration was recorded as D0, and the mice were sacrificed on D14 after administration. Paragonadal fat and heart tissues were respectively taken and stored in the RNAlater. RNA extraction, reverse transcription, and real-time fluorescence quantitative detection were performed on various tissues according to the above method, and gene expression differences were calculated by the above ΔΔCt method.

target gene SOD1 [3] = experiment: Test Example 12: inhibitory activity of lipid conjugated siRNA sequence on SOD1 in mouse eyes (intravitreal administration); format: in vivo, C57BL/6J mice; conditions: D14
Method: as §1, §2, §3, §4
The present test example evaluated, by an evaluation method for inhibitory activity on a target gene in mice, the inhibitory activity of siRNA sequence RZ899091 with the sense strand with the NM074 conjugation at Position 4 and siRNA reference sequence RX899121 without vector conjugation on the target gene SOD1 of interest in mice.
6-8 Week-old C57BL/6J mice were randomly grouped by body weight, 5 in each group and 3 groups in total. Mice in each group were administered with the above siRNA conjugate by intravitreal administration to right eyes of the mice, with an administration dose of 7.5 μg per mouse, and an administration volume of 2 μL. PBS control group was administered with the same volume of siRNA conjugate-free PBS solution. The day of administration was recorded as D0, and the mice were sacrificed at D14 after administration. Administration-side ocular retina, choroid, cornea, sclera and other tissues were respectively taken and stored in the RNAlater. RNA extraction, reverse transcription, and real-time fluorescence quantitative detection were performed on various tissues according to the above method, and gene expression differences were calculated by the above ΔΔCt method.

[4] = mouse adipose tissues (paragonadal fat)

Row | Substance | inhibitory activity by different routes of administration (target gene SOD1 [1]; adipose tissues) | inhibitory activity by different routes of administration (target gene SOD1 [1]; heart) | Subcutaneous % Mean value of inhibition rate (target gene SOD1 [1]; [4]) [%] | Intravenous % Mean value of inhibition rate (target gene SOD1 [1]; [4]) [%] | Subcutaneous % Mean value of inhibition rate (target gene SOD1 [1]; mouse heart tissues) [%] | Intravenous % Mean value of inhibition rate (target gene SOD1 [1]; mouse heart tissues) [%] | 0.5 mg/kg % Mean value of inhibition rate (target gene SOD1 [2]; [4]) [%] | 2 mg/kg % Mean value of inhibition rate (target gene SOD1 [2]; [4]) [%] | 5 mg/kg % Mean value of inhibition rate (target gene SOD1 [2]; [4]) [%] | dose dependency of inhibitory activity (target gene SOD1 [2]; mouse adipose tissues) | dose dependency of inhibitory activity (target gene SOD1 [2]; mouse heart tissues) | 0.5 mg/kg % Mean value of inhibition rate (target gene SOD1 [2]; mouse heart tissues) [%] | 2 mg/kg % Mean value of inhibition rate (target gene SOD1 [2]; mouse heart tissues) [%] | 5 mg/kg % Mean value of inhibition rate (target gene SOD1 [2]; mouse heart tissues) [%] | Choroid % Mean value of inhibition rate (target gene SOD1 [3]; choroid, intravitreal, right eye, 7.5 μg per mouse) [%] | Cornea and sclera % Mean value of inhibition rate (target gene SOD1 [3]; cornea and sclera, intravitreal, right eye, 7.5 μg per mouse) [%] | Kidney % Mean value of inhibition rate (target gene SOD1 [3]; kidney, intravitreal, right eye, 7.5 μg per mouse) [%] | Liver % Mean value of inhibition rate (target gene SOD1 [3]; liver, intravitreal, right eye, 7.5 μg per mouse) [%] | inhibitory activity compared with the reference sequence RX899121 without vector (target gene SOD1 [3]; mouse retina and choroid, intravitreal 7.5 μg per mouse) | Retina % Mean value of inhibition rate (target gene SOD1 [3]; retina, intravitreal, right eye, 7.5 μg per mouse) [%]
1 | RZ899090: siRNA sequence with the sense strand with the NM073 (C18) conjugation at Position 4; SEQ ID NO: 15 / 23 (sense UUUNAAUCCUCACUCUAAA; antisense UUUAGAGUGAGGAUUAAAAUG; NM073 (C18) conjugate at sense position 4; modified_base 1..2 OTHER; 2'-methoxy and 5'-thiophosphate modified nucleotides; modified_base 3 OTHER; 2'-methoxy modified nucleotide; modified_base 4 OTHER; n is the nucleotide analog NM073 as described in the disclosure.; modified_base 5..6 OTHER; 2'-methoxy modified nucleotides; modified_base 7..10 OTHER; 2'-fluoro modified nucleotides; modified_base 11..19 OTHER; modified_base 1 OTHER; 2'-methoxy and 5'-thiovinylphosphonate modified nucleotide; modified_base 2 OTHER; 2'-fluoro and 5'-thiophosphate modified nucleotide; modified_base 3..5 OTHER; …) | comparable inhibitory activity in the fat | comparable inhibitory activity in heart | 77.05 | 80.33 | 73.71 | 76.57 | 45.65 | 70.90 | 83.09 | distinct dose dependency | distinct dose dependency | 30.45 | 62.38 | 79.04 | – | – | – | – | – | –
2 | RZ899091: siRNA sequence with the sense strand with the NM074 (C20) conjugation at Position 4; SEQ ID NO: 16 / 23 (sense UUUNAAUCCUCACUCUAAA; antisense UUUAGAGUGAGGAUUAAAAUG; NM074 (C20) conjugate at sense position 4; modified_base 1..2 OTHER; 2'-methoxy and 5'-thiophosphate modified nucleotides; modified_base 3 OTHER; 2'-methoxy modified nucleotide; modified_base 4 OTHER; n is the synthetic nucleotide analog NM074 as described in the disclosure.; modified_base 5..6 OTHER; 2'-methoxy modified nucleotides; modified_base 7..10 OTHER; 2'-fluoro modified nucleotides; modified_base 11..19 OTHER; 2'-methoxy modified ; modified_base 1 OTHER; 2'-methoxy and 5'-thiovinylphosphonate modified nucleotide; modified_base 2 OTHER; 2'-fluoro and 5'-thiophosphate modified …) | – | – | – | – | – | – | – | – | – | – | – | – | – | – | 33.54 | −2.05 | 6.51 | −2.05 | superior inhibitory activity | 54.98

Source: patent US20260132165A1, “MODIFIED NUCLEOSIDE ANALOGUE AND USE THEREOF, AND NUCLEOSIDE ANALOGUE-CONTAINING DOUBLE-STRANDED OLIGONUCLEOTIDE AND USE THEREOF” (RIGERNA THERAPEUTICS (BEIJING) CO., LTD., priority 2023, published 2026)
